Measurements taken from patent US7067538B2, “MCP-1 receptor antagonists and methods of use thereof” (Warner-Lambert Company, LLC, priority 2002, dated 2006).
Where two headings read alike, the source gives them in different places.

Experiments:
[1] = Plasma stability in rat plasma and acidified rat plasma (LC/MS); format: in vitro ADME; settings: 1 μg/mL, 1 hour at room temperature or 37° C.
Experimental: Plasma stability studies were conducted on (Di-p-tolyl-methanesulfonyl)-acetic acid methyl ester and [bis-(4-chloro-phenyl)-methanesulfonyl]-acetic acid methyl ester. Briefly, these compounds (at a final concentration of 1 μg/mL) were separately inclubated in rat plasma and acidified rat plasma for 1 hour at room temperature or 37° C.

[2] = Pharmacokinetics in rats after intravenous infusion and oral gavage; format: in vivo
Experimental: The compound of Example 4, 3-[Bis-(4-chloro-phenyl)-methanesulfonyl]-1,1,1-trifluoro-propan-2-one, was administered to rats via a 5-minute intravenous infusion at 0.175 mg/mL (solution in 5% DMA/95% Tris base (50 mM in water)) and oral gavage at 0.35 mg/mL (suspension in 5% (w/v) PEG 200/95% (w/v) methylcellulose (0.5%)). Following intravenous administration of a 0.5 mg/kg dose to rats, the systemic clearance was about 0.06 mL/min/kg and the volume of distribution was about 0.2 L/kg. […] Following a 1 mg/kg oral dose, the compound of Example 4 was absorbed in rats with mean peak plasma levels of 6 μg/mL occurring approximately 2.5 hours after dosing. Based on the ratio of the dose-normalized area under the plasma concentration-time curve from 0 to 96 hour after oral and intravenous doses, the absolute oral bioavailability averaged about 100%. […]

[3] = biological target: T1, MCP-1 receptor (300-19 cell membranes) (Homo sapiens, UniProt P41597); assay: Inhibition of binding of 125I-MCP-1 to 300-19 cell membranes
T1 construct: host or cells: 300-19 cells (membrane preparation)
T1 sequence (P41597 whole entry): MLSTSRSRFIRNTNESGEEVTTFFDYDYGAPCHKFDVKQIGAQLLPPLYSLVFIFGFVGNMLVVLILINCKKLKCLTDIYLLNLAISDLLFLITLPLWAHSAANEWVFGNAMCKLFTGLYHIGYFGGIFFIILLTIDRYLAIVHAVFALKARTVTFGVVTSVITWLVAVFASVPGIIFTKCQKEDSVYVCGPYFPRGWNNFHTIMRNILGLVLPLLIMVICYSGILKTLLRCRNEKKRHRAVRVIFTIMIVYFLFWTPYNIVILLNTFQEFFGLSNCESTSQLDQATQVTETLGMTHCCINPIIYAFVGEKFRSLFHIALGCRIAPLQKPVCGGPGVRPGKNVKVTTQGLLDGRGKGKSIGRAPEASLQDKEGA
Experimental: Compounds were also assayed for their ability to inhibit the binding of radiolabeled MCP-1 to cell membranes. The materials and methods are set out below.
Membrane Preparation. 300-19 cells were harvested by centrifugation and washed with PBS (Dulbecco's phosphate-buffered saline w/o Ca and Mg). Cells were frozen at −80° C. overnight then resuspensed in ice cold lysis buffer (5 mM HEPES, 2 mM EDTA, 10 μg/mL of leupeptin, aprotinin, and chymostatin, and 200 μg/mL PMSF). The cell suspension was centrifuged at 1,000 rpm for 10 minutes and the supernatant was transferred and centrifuged at 14,000 rpm for 45 minutes at 4° C. then discarded. The resulting pellet was resuspended in stock buffer (10 mM HEPES, 300 mM sucrose, 20 μg/mL of leupeptin, aprotinin, and chymostatin, and 200 μg/mL PMSF), aliquoted, and frozen at −80° C. until use. Typical binding assays used 1.0 μg/well protein.
Prepared membranes were resuspended in binding buffer (50 mM Tris, 10 mM MgCl2, 1 mM EDTA pH 7.4) at 10 μg/mL protein. Membranes (1.0 μg/well) were incubated with ^125I-MCP-1 (0.15 nM) in the absence or presence of unlabeled chemokine (465 nM) or a compound of Examples 1–11, 14, 16, 19, 22, 27–30, 33–34, or [bis-(4-chloro-phenyl)-methanesulfonyl]-acetic acid methyl ester (0.001 μM–40 μM) for 3 hours at room temperature in a 96-well plate (total volume 250 μL). The reaction was terminated by filtration using a 96-well plate harvester (Packard Filtermate 196 Harvester). Filters (Packard GF/C) were prewet with 0.3% PEI containing 0.5% BSA and washed 5 times with wash buffer (DPBS, 0.3 MnCl2, and 0.25% BSA) prior to reaction termination. After terminating the reaction, filters were washed 6 times with wash buffer, and allowed to dry overnight. Scintillation fluid (Packard's Micro Scint 20) was added to each well and radioactivity bound was determined by liquid scintillation spectrometry. Nonspecific binding was determined in the presence of 465 nM unlabeled MCP-1. The IC50's (μM) of the inhibition of the binding of the iodinated MCP-1 are set out in Table 2.

[4] = system: MCP-1 response in THP-1 cells; assay: Calcium flux in THP-1 cells stimulated with human MCP-1 (FLIPR); format: cell-based; settings: read-out: Calcium Flux IC50
Experimental: Compounds of were evaluated for their effect on calcium flux using methodology known in the art, e.g., Neote et al., Cell 1993, 72:415–425. Briefly, THP-1 cells were incubated with the fluorescence dye FLUO-4 for 1 hour, the cells were washed after this loading period, resuspended in HANKs buffer, and loaded into a 384-well plate. The cells were then incubated in the presence of a compound of Example 1–12, 14, 18, 22–23, 27–28, 30, or [bis-(4-chloro-phenyl)-methanesulfonyl]-acetic acid methyl ester. After a 30-minute incubation period, the cells were stimulated with 33 nM human MCP-1 and the calcium flux response recorded and quantified with a FLIPR^384® (384-well Fluorometric Imaging Plate Reader) ([…], Sunnyvale, Calif.). The IC50's (μM) of the inhibition of the maximal MCP-1 response are set out in Table 1.

[5] = 300-19 cell membranes 1.0 μg/well, 125I-MCP-1 0.15 nM, 3 hours at room temperature, read-out: IC50 of the inhibition of the binding of the iodinated MCP-1
[6] = 0.5 h, THP-1 cells, 30-minute incubation, stimulated with 33 nM human MCP-1, inhibition of the maximal MCP-1 response

Row | SMILES | compound remaining after incubation in plasma [1] | IC50 [3, 5] | IC50 [4, 6] | melting point | bioavailability ([2]; rat, in vivo) | half-life ([2]; rat, in vivo) | mean peak plasma levels ([2]; rat, in vivo, po, 5 mg/kg) | time of peak plasma levels after dosing ([2]; rat, in vivo, po, 5 mg/kg) | also measured
1 | COC(=O)CS(=O)(=O)C(c1ccc(C)cc1)c1ccc(C)cc1 [(Di-p-tolyl-methanesulfonyl)-acetic acid methyl ester, reference compound] | below the lower limit of quantitation |  |  |  |  |  |  |  | plasma concentrations after intravenous or oral administration ([2]; rats, 1 mg/kg intravenous infusion or 5 mg/kg oral gavage, LC/MS): below the lower limit of quantitation
2 | O=C(CS(=O)(=O)C(c1ccc(Cl)cc1)c1ccc(Cl)cc1)C(F)(F)F [Example 4, 3-[Bis-(4-chloro-phenyl)-methanesulfonyl]-1,1,1-trifluoro-propan-2-one] |  | 175 nM | 495 nM | 60 to 62 °C | ~100% | ~47 h |  |  | Vd ([2]; rat, in vivo, iv, 0.5 mg/kg): ~0.2 L/kg; clearance ([2]; rat, in vivo, iv, 0.5 mg/kg): ~0.06 mL/min/kg; mean peak plasma levels ([2]; rat, in vivo, po, 1 mg/kg): 6 µg/mL; time of peak plasma levels after dosing ([2]; rat, in vivo, po, 1 mg/kg): approximately 2.5 hours
3 | O=C(CF)CS(=O)(=O)C(c1ccc(Cl)cc1)c1ccc(Cl)cc1 [Example 7, 3-[Bis-(4-chloro-phenyl)-methanesulfonyl]-1-fluoro-propan-2-one] |  | 101 nM | 423 nM | 55 to 58 °C | < 10% | 1.5 h | 0.359 µg/mL | 15 min | decrease in concentrations within 2 hours after dosing ([2]; rat, in vivo, iv, 1 mg/kg): > 100 fold; time for which plasma concentrations were measurable after dosing ([2]; rat, in vivo, po, 5 mg/kg): 4 h
4 | O=C(CS(=O)(=O)C(c1ccc(Cl)cc1)c1ccc(Cl)cc1)C(F)F [Example 8, 3-[Bis-(4-chloro-phenyl)-methanesulfonyl]-1,1-difluoro-propan-2-one] |  | 88 nM | 108 nM |  | ~43% | 7 h | about 7 μg/mL | 30 to 60 min | Vd ([2]; rat, in vivo, iv, 1 mg/kg): 0.28 L/kg; clearance ([2]; rat, in vivo, iv, 1 mg/kg): 0.75 mL/min/kg
5 | COC(=O)CS(=O)(=O)C(c1ccc(Cl)cc1)c1ccc(Cl)cc1 [[Bis-(4-chloro-phenyl)-methanesulfonyl]-acetic acid methyl ester, reference compound] | below the lower limit of quantitation |  |  |  |  |  |  |  | IC50 [3]: 7320 nM; IC50 ([4]; Homo sapiens, THP-1, 0.5 h): 150 nM
